Measurements as given in ChEMBL document CHEMBL1201862, “PubChem BioAssay data set” (2004).
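Briefly, cells in 96-well plates were exposed to five compound concentrations for 48 h, and endpoints were estimated by linear interpolation. Here, GI50 denotes the concentration required for 50% inhibition of growth.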 Activity calls are given as the source filed them. No stated cut-off is given here; in the data, active = GI50 up to about 1.1 µM and inactive = higher.

Key:
Experiment in all cases: NCI anticancer screen, dose series, 48 h
[1] = tested on: SNB-19
[2] = tested on: NCI-H23
[3] = tested on: A549
[4] = tested on: RXF 393
[5] = tested on: SK-MEL-28
[6] = tested on: HCT-116
[7] = tested on: MDA-MB-435
[8] = tested on: NCI/ADR-RES
[9] = tested on: OVCAR-5
[10] = tested on: SF-539
[11] = tested on: 786-0
[12] = tested on: SF-268
[13] = tested on: IGROV-1
[14] = tested on: Malme-3M
[15] = tested on: NCI-H226
[16] = tested on: T47D
[17] = tested on: A498
[18] = tested on: CAKI-1
[19] = tested on: EKVX
[20] = tested on: K562

Row | Structure (SMILES) | GI50 [1] | GI50 [2] | GI50 [3] | GI50 [4] | GI50 [5] | GI50 [6] | GI50 [7] | GI50 [8] | GI50 [9] | GI50 [10] | GI50 [11] | GI50 [12] | GI50 [13] | GI50 [14] | GI50 [15] | GI50 [16] | GI50 [17] | GI50 [18] | GI50 [19] | GI50 [20]
1 | CC(C)(C)C(=O)Nc1cccc(-c2ccc[nH]2)n1 | > 100 µM (inactive) | > 100 µM (inactive) | > 100 µM (inactive) | > 100 µM (inactive) | > 100 µM (inactive) | > 100 µM (inactive) | > 44.9 µM (inactive) | > 100 µM (inactive) | > 100 µM (inactive) | > 100 µM (inactive) | > 100 µM (inactive) | > 100 µM (inactive) | > 100 µM (inactive) | > 100 µM (inactive) | > 100 µM (inactive) | > 57.5 µM (inactive) | > 100 µM (inactive) | > 100 µM (inactive) | > 85.7 µM (inactive) | –
2 | COc1ccc(OC/C(N)=N/NC(=O)c2ccncc2)cc1 | > 100 µM (inactive) | > 100 µM (inactive) | > 100 µM (inactive) | > 100 µM (inactive) | > 100 µM (inactive) | > 100 µM (inactive) | > 100 µM (inactive) | > 100 µM (inactive) | > 100 µM (inactive) | > 100 µM (inactive) | > 100 µM (inactive) | > 100 µM (inactive) | > 100 µM (inactive) | > 100 µM (inactive) | – | > 100 µM (inactive) | > 100 µM (inactive) | > 100 µM (inactive) | > 100 µM (inactive) | > 100 µM (inactive)
3 | COc1cc2nc(-c3cccs3)nc(N3C(c4ccc(O)cc4)=NNC(=O)c4ccccc43)c2cc1OC | 35.6 µM (inactive) | 27.5 µM (inactive) | 55.6 µM (inactive) | 19.8 µM (inactive) | 25.4 µM (inactive) | 32.4 µM (inactive) | 26.2 µM (inactive) | 17.7 µM (inactive) | 28.8 µM (inactive) | < 0.01 µM (active) | 52.8 µM (inactive) | 28.7 µM (inactive) | 32.7 µM (inactive) | 21.1 µM (inactive) | 23.3 µM (inactive) | 29.2 µM (inactive) | > 100 µM (inactive) | 22.2 µM (inactive) | 3.9 µM (inactive) | 17.5 µM (inactive)
4 | COC(=O)c1ccccc1C1CN=NC12Cc1cc(C)c(C)cc1C2=O (configuration not stated) | 54.8 µM (inactive) | 29.1 µM (inactive) | 37.8 µM (inactive) | 66.2 µM (inactive) | 87.7 µM (inactive) | 33.4 µM (inactive) | 33.4 µM (inactive) | 23.6 µM (inactive) | > 100 µM (inactive) | 84.3 µM (inactive) | 63.1 µM (inactive) | 28.9 µM (inactive) | 55.2 µM (inactive) | 52.4 µM (inactive) | > 100 µM (inactive) | 31.8 µM (inactive) | 25.8 µM (inactive) | 61.2 µM (inactive) | 42.1 µM (inactive) | 20 µM (inactive)
5 | CC(=O)Nc1ccc2c3c(cc(O)c2c1)N(C(=O)CCCC(=O)Nc1ccc2c4c(cc(O)c2c1)N(C(=O)OC(C)(C)C)CC4CCl)CC3CCl (configuration not stated) | 1.24 µM (inactive) | 1.42 µM (inactive) | 9.4 µM (inactive) | 2.58 µM (inactive) | 1.91 µM (inactive) | 0.851 µM (active) | 0.938 µM (active) | > 50 µM (inactive) | 2.3 µM (inactive) | 1.42 µM (inactive) | 1.23 µM (inactive) | 0.195 µM (active) | 1.05 µM (active) | 0.78 µM (active) | – | 0.418 µM (active) | 1.02 µM (active) | > 50 µM (inactive) | 5.24 µM (inactive) | 1.22 µM (inactive)
